Several values for one entry are separate records, joined by “and”; a condition that tells them apart may be missing. Equal entries are not always repeated.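 In this assay, cells in 96-well plates receive the compound at five concentrations for 48 hours. Endpoints are linearly interpolated between the surrounding concentrations. GI50 is the concentration that inhibits growth by half. TGI: concentration producing complete growth inhibition.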
How the values were obtained:
Assay in all cases: NCI tumour cell line growth inhibition, 48 h
[1] = test system: MALME-3M melanoma
[2] = test system: MOLT-4 leukemia
[3] = test system: NCI-H226 lung
[4] = test system: NCI-H23 lung
[5] = test system: OVCAR-3 ovarian
[6] = test system: OVCAR-4 ovarian
[7] = test system: OVCAR-5 ovarian
[8] = test system: SF-268 CNS
[9] = test system: SF-539 CNS
[10] = test system: UACC-62 melanoma

SMILES	GI50 [1]	TGI [1]	GI50 [2]	TGI [2]	GI50 [3]	TGI [3]	GI50 [4]	TGI [4]	GI50 [5]	TGI [5]	GI50 [6]	TGI [6]	GI50 [7]	TGI [7]	GI50 [8]	TGI [8]	GI50 [9]	TGI [9]	GI50 [10]	TGI [10]
NCCC(O)(P(=O)(O)O)P(=O)(O)O	> 100 µM	> 100 µM	> 100 µM	> 100 µM	14.1 µM	36.5 µM	> 100 µM	> 100 µM	> 100 µM	> 100 µM	> 100 µM	> 100 µM	> 100 µM	> 100 µM	> 100 µM	> 100 µM	> 100 µM	> 100 µM	29.1 µM	> 100 µM
COC(=O)[C@]1(C)CCC[C@@]2(C)C1CCC1=CC3(C(C)C)CCC12OO3 (some centres undefined)		> 100 µM		> 100 µM		> 100 µM		> 100 µM		> 100 µM		> 100 µM		> 100 µM		> 100 µM		> 100 µM		> 100 µM
NC1=N/C(=C2/CCNC(=O)c3[nH]c(Br)cc32)C(=O)N1	8.82 µM and 25.1 µM	> 100 µM		> 52.6 µM	> 64 µM and 21.8 µM	> 100 µM		> 100 µM	4.29 µM and 10.7 µM	43 µM and 40.1 µM		46.4 µM and 40.5 µM		> 100 µM		59.9 µM and > 69.6 µM	4.29 µM and 13 µM	17.3 µM and 35.5 µM		> 100 µM
O=[N+]([O-])c1nccn1COCCF		> 100 µM		> 100 µM		> 100 µM		> 100 µM		> 100 µM		> 100 µM		> 100 µM		> 100 µM		> 100 µM		> 100 µM
Cc1cc(Cl)cc2c1NC(=O)C2(O)C(C)C(=O)c1ccc(Cl)cc1 (centres undefined)		> 100 µM		87.7 µM		> 100 µM		> 100 µM		> 100 µM		62.1 µM		> 100 µM		> 100 µM		> 100 µM		44 µM
CC(C)=CC(=O)Cc1nc2cc(C)c(C)cc2[nH]c1=O		> 100 µM		> 100 µM		> 100 µM		> 100 µM		> 100 µM		> 100 µM		> 100 µM		> 100 µM		> 100 µM		> 100 µM
CCn1cnc2c(Nc3cccc(Cl)c3)nc(N[C@@H]3CCCC[C@@H]3N)nc21	1.57 µM	3.21 µM	2.24 µM	7.27 µM	2 µM	5.95 µM	1.38 µM	3.59 µM	1.18 µM	4.4 µM	1.68 µM	5.43 µM	1.81 µM	7.92 µM	1.65 µM	3.89 µM	1.42 µM	2.8 µM	1.49 µM	3.59 µM
CCOC(=O)c1sc(Nc2ccc(Cl)cc2)nc1C	1.61 µM	3.59 µM	1.79 µM	6.92 µM	1.76 µM	4.46 µM	1.5 µM	3.56 µM	1.69 µM	3.92 µM	2.04 µM	19 µM	2.08 µM	6.63 µM	1.72 µM	3.7 µM	1.66 µM	3.72 µM	1.17 µM	2.71 µM
COc1ccc(NC(=O)c2sc3nc(C)c(C(O)c4ccccc4)cc3c2N)cc1 (centres undefined)	3.22 µM	44.9 µM	3.57 µM	34 µM	4.87 µM	> 100 µM	3.48 µM	> 100 µM	2.48 µM	13.8 µM	3.72 µM	> 100 µM	4.74 µM	> 100 µM	4.06 µM	> 100 µM	2.24 µM	6.65 µM	2.93 µM	> 100 µM
CC12CCC[C@@](C)(C(=O)OC3OC(CO)C(O)C(O)C3O)[C@H]1CCC13CC4CC(OC4(CO)[C@H]1O)[C@@H]23 (some centres undefined)		> 100 µM		> 100 µM		> 100 µM		> 100 µM		> 100 µM		> 100 µM		> 100 µM		> 100 µM		> 100 µM		> 100 µM
N.N.NCCCCN.O=C([O-])C1(C(=O)[O-])CCC1.O=C([O-])C1(C(=O)[O-])CCC1.[Pt+4].[Pt+4]	> 100 µM	> 100 µM	33.5 µM	> 100 µM	> 100 µM	> 100 µM	78.6 µM	> 100 µM	> 100 µM	> 100 µM	> 100 µM	> 100 µM	> 100 µM	> 100 µM	97.4 µM	> 100 µM	> 100 µM	> 100 µM	82.2 µM	> 100 µM
CC(C)(C)C(=O)C1CC(=O)c2ccccc2C1=O (centres undefined)		31.4 µM		75.9 µM		> 100 µM		45.3 µM		71.4 µM		> 100 µM		> 100 µM		69.7 µM		> 100 µM		> 100 µM
O=C1OC(O)C(Oc2ccc(Cl)cc2)=C1Cl (centres undefined)		> 100 µM		> 100 µM		> 100 µM		> 100 µM		> 100 µM		> 100 µM		> 100 µM		> 100 µM		> 100 µM		> 100 µM
COC1=CC(c2ccc[nH]2)=N/C1=C\c1[nH]c(C)c(C(=O)CCCCC(=O)Nc2ccccc2)c1C	1.28 µM	3.16 µM	0.522 µM	2.01 µM	1.85 µM	6.11 µM	1.87 µM	4.8 µM	1.21 µM	2.51 µM	1.56 µM	3.96 µM	3.14 µM	16.5 µM	1.26 µM	2.72 µM	3.78 µM	9.78 µM	8.71 µM	24.5 µM
CC1OC(OCC2COC(O)(Oc3c(-c4ccc(O)c(O)c4)oc4cc(O)cc(O)c4c3=O)C(O)C2O)C(O)C(O)C1O (centres undefined)		> 100 µM		> 100 µM		> 100 µM		> 100 µM		> 100 µM		> 100 µM		> 100 µM		> 100 µM		> 100 µM		> 100 µM
CS(=O)(=O)Nc1ccc(Nc2c3ccccc3nc3ccccc23)cc1		12.2 µM		10.4 µM		7.14 µM		25.8 µM		18.7 µM		17.4 µM		21 µM		24.5 µM		20.2 µM		9 µM
O=c1cnn2c(n1)sc1ccc3ccccc3c12		> 100 µM		> 100 µM		> 100 µM		> 100 µM		> 100 µM		> 100 µM		> 100 µM		> 100 µM		> 100 µM		> 100 µM

From PubChem BioAssay (NCI)
